# Calls of active or inactive are those of the source. The rule behind the calls is not given here.
# Experiments:
# NCI/ADR-RES [1] = assay: Cytotoxicity against human MCF7ADR cells assessed as cell survival rate at 5 uM incubated for 48 hrs by CCK8 assay relative to control; format: functional
# NCI/ADR-RES [2] = assay: Cytotoxicity against human MCF7ADR cells assessed as cell survival rate at 1 uM incubated for 48 hrs by CCK8 assay relative to control; format: functional
# NCI/ADR-RES [3] = assay: Reversal activity against doxorubicin-mediated resistance in human MCF7ADR cells assessed as reversal fold by measuring ratio of doxorubicin IC50 to doxorubicin IC50 in presence of test compound at 1 uM incubated for 48 hrs by CCK8 assay; format: functional
# NCI/ADR-RES [4] = assay: Reversal activity against doxorubicin-mediated resistance in human MCF7ADR cells assessed as reversal fold by measuring ratio of doxorubicin IC50 to doxorubicin IC50 in presence of test compound at 5 uM incubated for 48 hrs by CCK8 assay; format: functional
# MCF7 [5] = assay: Antitumor activity against human MCF7 cells incubated for 48 hrs by CCK8 assay; format: functional, cell-based; conditions: MCF7, 48 h
# NCI/ADR-RES [6] = assay: Reversal activity against daunorubicin-mediated resistance in human MCF7ADR cells assessed as reversal fold by measuring ratio of daunorubicin IC50 to daunorubicin IC50 in presence of test compound at 5 uM incubated for 48 hrs by CCK8 assay; format: functional
# NCI/ADR-RES [7] = assay: Reversal activity against doxorubicin-mediated resistance in human MCF7ADR cells xenografted in nude BALB/c mouse at 10 mg/kg, ip for 14 days administered every 2 days; format: functional, organism-based; conditions: time 14.0 day
# NCI/ADR-RES [8] = assay: Antitumor activity against human MCF7ADR cells xenografted in nude BALB/c mouse assessed as tumor weight reduction at 10 mg/kg, ip for 14 days administered every 2 days; format: functional, organism-based; conditions: time 14.0 day
# [9] = Toxicity in nude BALB/c mouse xenografted with human MCF7ADR cells assessed as morphological change in liver at 10 mg/kg, ip for 14 days administered every 2 days by H and E staining based analysis; format: organism-based; conditions: in vivo, 336 h, time 14 day
# [10] = Toxicity in nude BALB/c mouse xenografted with human MCF7ADR cells assessed as morphological change in kidney at 10 mg/kg, ip for 14 days administered every 2 days by H and E staining based analysis; format: organism-based; conditions: in vivo, 336 h, time 14 day
# NCI/ADR-RES [11] = assay: Downregulation of P-gp expression in human MCF7ADR cells at 0.1 to 10 uM incubated for 48 hrs by Western blot analysis; format: functional, cell-based; conditions: dose 0.1-10 µM
# [12] = Toxicity in nude BALB/c mouse xenografted with human MCF7ADR cells assessed as body weight loss at 10 mg/kg, ip for 14 days administered every 2 days; format: organism-based; conditions: in vivo, 336 h, time 14 day
# NCI/ADR-RES [13] = assay: Reversal activity against doxorubicin-mediated resistance in 3D spheroid model of human MCF7ADR cells assessed as reduction in tumor spheroid volume at 5 uM incubated for 9 days by inverted microscopy; format: functional, cell-based; conditions: time 9.0 day
# [14] = Toxicity in nude BALB/c mouse xenografted with human MCF7ADR cells assessed as morphological change in lung at 10 mg/kg, ip for 14 days administered every 2 days by H and E staining based analysis; format: organism-based; conditions: in vivo, 336 h, time 14 day
# [15] = Toxicity in nude BALB/c mouse xenografted with human MCF7ADR cells assessed as morphological change in heart at 10 mg/kg, ip for 14 days administered every 2 days by H and E staining based analysis; format: organism-based; conditions: in vivo, 336 h, time 14 day
# [16] = target: T1, ATP-dependent translocase ABCB1 (Homo sapiens, UniProt P08183); assay: Inhibition of P-gp in human MCF7ADR cells assessed as increase in Rh123 accumulation at 0.1 to 10 uM incubated for 4 hrs by flow cytometry; format: cell-based; conditions: dose 0.1-10 µM
# [17] = Toxicity in nude BALB/c mouse xenografted with human MCF7ADR cells assessed as morphological change in spleen at 10 mg/kg, ip for 14 days administered every 2 days by H and E staining based analysis; format: organism-based; conditions: in vivo, 336 h, time 14 day
# NCI/ADR-RES [18] = assay: Reversal activity against doxorubicin-mediated resistance in human MCF7ADR cells assessed as reversal fold by measuring ratio of doxorubicin IC50 to doxorubicin IC50 in presence of test compound at 0.1 uM incubated for 48 hrs by CCK8 assay; format: functional
# MCF7 [19] = assay: Cytotoxicity against human MCF7 cells assessed as cell survival rate at 5 uM incubated for 48 hrs by CCK8 assay relative to control; format: functional
# NCI/ADR-RES [20] = assay: Reversal activity against vincristine-mediated resistance in human MCF7ADR cells assessed as reversal fold by measuring ratio of vincristine IC50 to vincristine IC50 in presence of test compound at 5 uM incubated for 48 hrs by CCK8 assay; format: functional
# NCI/ADR-RES [21] = assay: Reversal activity against doxorubicin-mediated resistance in human MCF7ADR cells assessed as reversal fold by measuring ratio of doxorubicin IC50 to doxorubicin IC50 in presence of test compound at 0.5 uM incubated for 48 hrs by CCK8 assay; format: functional
# NCI/ADR-RES [22] = assay: Reversal activity against paclitaxel-mediated resistance in human MCF7ADR cells assessed as reversal fold by measuring ratio of paclitaxel IC50 to paclitaxel IC50 in presence of test compound at 5 uM incubated for 48 hrs by CCK8 assay; format: functional
# NCI/ADR-RES [23] = assay: Antitumor activity against human MCF7ADR cells xenografted in nude BALB/c mouse assessed as tumor size reduction at 10 mg/kg, ip for 14 days administered every 2 days; format: functional, organism-based; conditions: time 14.0 day
# [24] = Toxicity in nude BALB/c mouse xenografted with human MCF7ADR cells assessed as body weight loss at 10 mg/kg, ip for 14 days administered every 2 days in presence of doxorubicin; format: organism-based; conditions: in vivo, 336 h, time 14 day
# [25] = target: T1, ATP-dependent translocase ABCB1; assay: Inhibition of P-gp in human MCF7ADR cells assessed as increase in Rh123 accumulation at 0.1 to 10 uM incubated for 4 hrs by fluorescence microscopy; format: cell-based; conditions: dose 0.1-10 µM
# NCI/ADR-RES [26] = assay: Antitumor activity against human MCF7ADR cells xenografted in nude BALB/c mouse assessed as tumor volume reduction at 10 mg/kg, ip for 14 days administered every 2 days; format: functional, organism-based; conditions: time 14.0 day
# T1 sequence (P08183 whole entry): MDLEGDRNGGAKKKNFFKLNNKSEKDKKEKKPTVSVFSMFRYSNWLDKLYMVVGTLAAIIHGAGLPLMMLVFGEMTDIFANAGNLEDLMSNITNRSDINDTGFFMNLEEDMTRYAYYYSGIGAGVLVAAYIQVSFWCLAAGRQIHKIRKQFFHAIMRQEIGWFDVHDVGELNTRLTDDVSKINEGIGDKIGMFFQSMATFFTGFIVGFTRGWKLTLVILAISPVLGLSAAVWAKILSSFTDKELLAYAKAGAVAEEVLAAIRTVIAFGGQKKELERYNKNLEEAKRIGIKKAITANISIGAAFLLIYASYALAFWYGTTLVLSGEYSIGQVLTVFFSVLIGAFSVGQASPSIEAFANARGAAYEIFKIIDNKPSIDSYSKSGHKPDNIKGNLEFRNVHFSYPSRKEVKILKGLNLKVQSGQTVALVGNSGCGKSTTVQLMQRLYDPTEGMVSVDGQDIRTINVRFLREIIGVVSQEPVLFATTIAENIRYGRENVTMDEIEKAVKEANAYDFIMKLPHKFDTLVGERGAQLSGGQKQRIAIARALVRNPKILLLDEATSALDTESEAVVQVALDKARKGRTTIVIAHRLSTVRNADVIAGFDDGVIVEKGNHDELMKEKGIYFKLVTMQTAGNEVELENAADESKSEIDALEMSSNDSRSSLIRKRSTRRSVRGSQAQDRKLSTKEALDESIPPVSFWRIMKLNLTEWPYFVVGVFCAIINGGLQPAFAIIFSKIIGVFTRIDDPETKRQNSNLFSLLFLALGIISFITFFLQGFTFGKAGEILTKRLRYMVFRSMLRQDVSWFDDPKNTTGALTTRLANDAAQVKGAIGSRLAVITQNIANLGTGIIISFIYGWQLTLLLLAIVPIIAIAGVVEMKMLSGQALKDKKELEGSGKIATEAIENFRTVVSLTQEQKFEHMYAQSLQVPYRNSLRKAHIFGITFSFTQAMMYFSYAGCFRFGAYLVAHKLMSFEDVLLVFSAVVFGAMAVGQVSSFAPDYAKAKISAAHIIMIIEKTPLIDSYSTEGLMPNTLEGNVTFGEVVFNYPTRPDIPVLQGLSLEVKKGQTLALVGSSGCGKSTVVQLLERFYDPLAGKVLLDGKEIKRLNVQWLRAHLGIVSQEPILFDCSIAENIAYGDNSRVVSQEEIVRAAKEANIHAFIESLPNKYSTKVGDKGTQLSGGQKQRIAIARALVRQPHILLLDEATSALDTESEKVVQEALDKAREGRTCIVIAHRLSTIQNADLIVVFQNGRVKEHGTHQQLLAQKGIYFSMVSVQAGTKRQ
smiles,measurement,setting,value
COc1cc2c(cc1OC)CN(C(=O)c1ccc(-c3ccc(NC(=O)c4cccnc4)cc3)o1)CC2,Activity,NCI/ADR-RES [1],14.7%
same,Activity,NCI/ADR-RES [2],72.4%
same,fold change (FC),NCI/ADR-RES [3],2.2
COc1cc2c(cc1OC)CN(C(=O)c1ccc(-c3cccc(NC(=O)c4ccco4)c3)o1)CC2,Activity,NCI/ADR-RES [1],75.9%
same,fold change (FC),NCI/ADR-RES [3],5.2
same,fold change (FC),NCI/ADR-RES [4],30.4
COc1cc2c(cc1OC)CN(C(=O)c1ccc(-c3ccc(NC(=O)c4ccco4)cc3)o1)CC2,Activity,NCI/ADR-RES [1],11.3%
same,Activity,NCI/ADR-RES [2],80.6%
CC(=O)O[C@H]1C(=O)[C@@]2(C)[C@H]([C@H](OC(=O)c3ccccc3)[C@]3(O)C[C@H](OC(=O)[C@H](O)[C@@H](NC(=O)c4ccccc4)c4ccccc4)C(C)=C1C3(C)C)[C@]1(OC(C)=O)CO[C@@H]1C[C@@H]2O [PACLITAXEL],IC50,MCF7 [5],0.55 µM
COc1ccc(C(=O)Nc2ccc(-c3ccc(C(=O)N4CCc5cc(OC)c(OC)cc5C4)o3)cc2)cc1,fold change (FC),NCI/ADR-RES [6],143.4
same,Activity,NCI/ADR-RES [7],Active
same,Activity,NCI/ADR-RES [8],inactive
same,Activity,[9],Non-Toxic
same,Activity,[10],Non-Toxic
same,Activity,NCI/ADR-RES [11],inactive
same,Activity,[12],Non-Toxic
same,Activity,NCI/ADR-RES [13],Active
same,Activity,[14],Non-Toxic
same,Activity,NCI/ADR-RES [1],80.1%
same,Activity,[15],Non-Toxic
same,inhibition (INH),[16],Dose-Dependent Effect
same,Activity,[17],Non-Toxic
same,fold change (FC),NCI/ADR-RES [18],3.3
same,Activity,MCF7 [19],80.4%
same,fold change (FC),NCI/ADR-RES [20],18.9
same,fold change (FC),NCI/ADR-RES [21],8.8
same,fold change (FC),NCI/ADR-RES [22],158.6
same,Activity,NCI/ADR-RES [23],inactive
same,Activity,[24],Toxic
same,inhibition (INH),[25],Dose-Dependent Effect
same,fold change (FC),NCI/ADR-RES [3],110.5
same,Activity,NCI/ADR-RES [26],inactive
same,fold change (FC),NCI/ADR-RES [4],565
COc1cc2c(cc1OC)CN(C(=O)c1ccc(-c3ccc(NC(=O)c4ccc(-c5ccccc5)cc4)cc3)o1)CC2,Activity,NCI/ADR-RES [1],95%
same,Activity,MCF7 [19],98.7%
same,fold change (FC),NCI/ADR-RES [4],17.1
COc1cc2c(cc1OC)CN(C(=O)c1ccc(-c3ccc(NC(=O)c4ccc(Br)cc4)cc3)o1)CC2,Activity,NCI/ADR-RES [1],96.3%
same,Activity,MCF7 [19],97.2%
same,fold change (FC),NCI/ADR-RES [4],48.4
COc1cc2c(cc1OC)CN(C(=O)c1ccc(-c3ccc(NC(=O)c4cccs4)cc3)o1)CC2,Activity,NCI/ADR-RES [1],26%
same,Activity,NCI/ADR-RES [2],92.3%
COc1cc2c(cc1OC)CN(C(=O)c1ccc(-c3ccccc3NC(=O)c3cccc([N+](=O)[O-])c3)o1)CC2,Activity,NCI/ADR-RES [1],66.2%
same,Activity,MCF7 [19],67.5%
same,fold change (FC),NCI/ADR-RES [4],6.1
COc1cc2c(cc1OC)CN(C(=O)c1ccc(-c3ccc(NC(=O)c4ccccc4OC)cc3)o1)CC2,Activity,NCI/ADR-RES [1],98.6%
same,Activity,MCF7 [19],99.7%
same,fold change (FC),NCI/ADR-RES [4],24.2
COc1cccc(C(=O)Nc2ccc(-c3ccc(C(=O)N4CCc5cc(OC)c(OC)cc5C4)o3)cc2)c1,Activity,NCI/ADR-RES [1],77.1%
same,Activity,MCF7 [19],81.2%
same,fold change (FC),NCI/ADR-RES [4],97.8
COc1cc2c(cc1OC)CN(C(=O)c1ccc(-c3ccccc3NC(=O)c3ccc([N+](=O)[O-])cc3)o1)CC2,Activity,NCI/ADR-RES [1],99.6%
same,Activity,MCF7 [19],86.2%
same,fold change (FC),NCI/ADR-RES [4],24.3
COc1cc2c(cc1OC)CN(C(=O)c1ccc(-c3cccc(NC(=O)c4ccc([N+](=O)[O-])cc4)c3)o1)CC2,Activity,NCI/ADR-RES [1],99.7%
same,Activity,MCF7 [19],99.8%
same,fold change (FC),NCI/ADR-RES [4],32.6
COc1cc2c(cc1OC)CN(C(=O)c1ccc(-c3ccc(NC(=O)c4cccc(F)c4)cc3)o1)CC2,Activity,NCI/ADR-RES [1],78.2%
same,Activity,MCF7 [19],75.1%
same,fold change (FC),NCI/ADR-RES [4],19.6
COc1cc2c(cc1OC)CN(C(=O)c1ccc(-c3ccc(NC(=O)c4ccc(F)cc4)cc3)o1)CC2,Activity,NCI/ADR-RES [1],70.6%
same,Activity,MCF7 [19],53.6%
same,fold change (FC),NCI/ADR-RES [4],53.5
COc1cccc2c1C(=O)c1c(O)c3c(c(O)c1C2=O)C[C@@](O)(C(C)=O)C[C@@H]3O[C@H]1C[C@H](N)[C@H](O)[C@H](C)O1 [DAUNORUBICIN],IC50,MCF7 [5],0.98 µM
COc1cc(OC)cc(C(=O)Nc2cccc(-c3ccc(C(=O)N4CCc5cc(OC)c(OC)cc5C4)o3)c2)c1,Activity,NCI/ADR-RES [1],73.9%
same,Activity,MCF7 [19],63%
same,fold change (FC),NCI/ADR-RES [4],30.1
COc1ccc(C(=O)Nc2cccc(-c3ccc(C(=O)N4CCc5cc(OC)c(OC)cc5C4)o3)c2)cc1,Activity,NCI/ADR-RES [1],62.1%
same,Activity,MCF7 [19],32.4%
same,fold change (FC),NCI/ADR-RES [4],72.6
COc1cc2c(cc1OC)CN(C(=O)c1ccc(-c3ccc(NC(=O)c4ccccc4)cc3)o1)CC2,Activity,NCI/ADR-RES [1],73.5%
same,fold change (FC),NCI/ADR-RES [3],5.3
same,fold change (FC),NCI/ADR-RES [4],221.1
COc1cccc(C(=O)Nc2cccc(-c3ccc(C(=O)N4CCc5cc(OC)c(OC)cc5C4)o3)c2)c1,Activity,NCI/ADR-RES [1],75%
same,Activity,MCF7 [19],59.4%
same,fold change (FC),NCI/ADR-RES [4],59.8
COc1cc2c(cc1OC)CN(C(=O)c1ccc(-c3ccccc3NC(=O)c3ccccc3Cl)o1)CC2,Activity,NCI/ADR-RES [1],96.3%
same,Activity,MCF7 [19],66.5%
same,fold change (FC),NCI/ADR-RES [4],29.2
COc1cc(OC)cc(C(=O)Nc2ccccc2-c2ccc(C(=O)N3CCc4cc(OC)c(OC)cc4C3)o2)c1,Activity,NCI/ADR-RES [1],97.3%
same,Activity,MCF7 [19],70.5%
same,fold change (FC),NCI/ADR-RES [4],13.1
COc1cc2c(cc1OC)CN(C(=O)c1ccc(-c3cccc(NC(=O)c4ccc(Cl)cc4)c3)o1)CC2,Activity,NCI/ADR-RES [1],85.5%
same,Activity,MCF7 [19],88.1%
same,fold change (FC),NCI/ADR-RES [4],18
COc1cc2c(cc1OC)CN(C(=O)c1ccc(-c3ccccc3NC(=O)c3ccc(Cl)cc3)o1)CC2,Activity,NCI/ADR-RES [1],84.1%
same,Activity,MCF7 [19],83%
same,fold change (FC),NCI/ADR-RES [4],24
COc1cc2c(cc1OC)CN(C(=O)c1ccc(-c3cccc(NC(=O)c4cccc(Cl)c4)c3)o1)CC2,Activity,NCI/ADR-RES [1],97.5%
same,Activity,MCF7 [19],85.3%
same,fold change (FC),NCI/ADR-RES [4],41
CC[C@]1(O)C[C@H]2CN(CCc3c([nH]c4ccccc34)[C@@](C(=O)OC)(c3cc4c(cc3OC)N(C=O)[C@H]3[C@@](O)(C(=O)OC)[C@H](OC(C)=O)[C@]5(CC)C=CCN6CC[C@]43[C@@H]65)C2)C1 [VINCRISTINE],IC50,MCF7 [5],0.9 µM
